Consider 15 molecules from ChEMBL document CHEMBL1914429, “Potent and selective 2-naphthylsulfonamide substituted hydroxamic acid inhibitors of matrix metalloproteinase-13” (Bioorg Med Chem Lett, 2011).

Data set [1] is described as follows: AUC in rat at 5 mg/kg, po. On the set-up: dose 5 mg/kg, route oral. The settings on record: plasma. It is filed as ADME, organism-based.
Data set [2] is described as follows: Clearance in rat at 5 mg/kg, po and 1 mg/kg, iv. Type of data set: ADME, organism-based. Conditions: in vivo.
The nature of data set [3]: Oral bioavailability in rat at 5 mg/kg. It is filed as ADME, organism-based. The settings on record: in vivo.
Data set [4] is described as follows: Half life in rat at 5 mg/kg, po and 1 mg/kg, iv. Type of data set: ADME, organism-based. Conditions: in vivo.
In data set [5] the target is 72 kDa type IV collagenase (Homo sapiens, UniProt P08253).
72 kDa type IV collagenase, sequence (P08253 whole entry): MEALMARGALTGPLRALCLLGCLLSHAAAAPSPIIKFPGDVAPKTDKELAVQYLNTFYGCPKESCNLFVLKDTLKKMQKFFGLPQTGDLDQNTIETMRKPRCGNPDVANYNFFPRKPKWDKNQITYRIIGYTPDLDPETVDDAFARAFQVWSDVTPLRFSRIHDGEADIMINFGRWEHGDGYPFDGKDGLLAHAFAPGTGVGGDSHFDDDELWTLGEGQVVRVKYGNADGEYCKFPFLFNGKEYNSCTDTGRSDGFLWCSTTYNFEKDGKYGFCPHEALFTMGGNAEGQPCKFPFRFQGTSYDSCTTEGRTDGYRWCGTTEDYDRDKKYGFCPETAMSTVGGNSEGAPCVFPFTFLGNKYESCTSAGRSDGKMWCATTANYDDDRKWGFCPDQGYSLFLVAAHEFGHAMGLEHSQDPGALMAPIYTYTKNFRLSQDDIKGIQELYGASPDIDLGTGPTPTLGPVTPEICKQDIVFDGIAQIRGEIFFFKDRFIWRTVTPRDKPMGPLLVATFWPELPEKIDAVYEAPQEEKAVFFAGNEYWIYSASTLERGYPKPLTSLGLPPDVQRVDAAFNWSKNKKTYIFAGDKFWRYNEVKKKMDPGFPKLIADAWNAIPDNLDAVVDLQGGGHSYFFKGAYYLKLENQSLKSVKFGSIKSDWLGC

What is called AUC is the area under the concentration-time curve, a measure of exposure. Read a low AUC as less exposure. Turning to `CC(C)[C@H](C(=O)NO)N(Cc1ccncc1)S(=O)(=O)c1ccc2ccccc2c1`, in data set [1], the AUC is 0.32 µM·h. For the same molecule, the clearance in data set [2] is 122 mL/min/kg.

`CC(C)[C@H](C(=O)NO)N(Cc1cccnc1)S(=O)(=O)c1ccc2ccccc2c1` came in with an AUC in data set [1] of 0.55 µM·h. For the same molecule, in data set [2], the clearance is 107 mL/min/kg.

Broadly, the bioavailability is the share of a dose that reaches the circulation, judged against a reference dose that is usually intravenous. Usually half-life stands for how long it takes for the measured level to halve. `CC(C)CCN([C@@H](C(=O)NO)C(C)C)S(=O)(=O)c1ccc2ccccc2c1` had a bioavailability in data set [3] of 23.8%. This molecule also yielded an AUC in data set [1] of 1.5 µM·h. The molecule further had a half-life in data set [4] of 5.7 h. In data set [2], this molecule had a clearance of 40 mL/min/kg.

Consider `CC(C)[C@H](C(=O)NO)N(CCc1ccccc1)S(=O)(=O)c1ccc2ccccc2c1`, for which, in data set [1], the AUC worked out at 0.45 µM·h. In addition, in data set [2], the clearance was 55 mL/min/kg.

In general, IC50 refers to the point on the concentration scale where inhibition reaches its midpoint. A low value points to higher potency. Consider `COc1ccc(S(=O)(=O)N(CCC(C)C)[C@@H](C(=O)NO)C(C)C)cc1OC`, for which 30.1 µM corresponded to half-maximal inhibition in data set [5] (IC50).

Take `CC(C)CCN([C@@H](C(=O)NO)C(C)C)S(=O)(=O)c1ccc2sccc2c1`: in data set [1], the AUC was 1.5 µM·h. The molecule also gave an IC50 in data set [5] of 0.016 µM. The molecule also had a clearance in data set [2] of 118 mL/min/kg.

As to `CC(C)CCN([C@@H](C(=O)NO)C(C)C)S(=O)(=O)c1ccc2ncccc2c1`, the exposure (AUC) in data set [1] was determined as 4.6 µM·h. In data set [2], this molecule had a clearance of 18.3 mL/min/kg.

In data set [5], `CC(C)CCN([C@@H](C(=O)NO)C(C)C)S(=O)(=O)c1ccc2c(c1)OCCO2` gave a 50% inhibitory concentration (IC50) of 0.003 µM. In other words, the single-digit nanomolar range.

As for `CC(C)CCN([C@@H](C(=O)NO)C(C)C)S(=O)(=O)c1ccc2c(c1)CCO2`, the midpoint of inhibition in data set [5], the IC50, lay at 0.01 µM. This IC50 is about 3.3-fold higher than that of the molecule before.

Take `CC(C)CCN([C@@H](C(=O)NO)C(C)C)S(=O)(=O)c1ccc2ccccc2n1`: the AUC in data set [1] is 0.13 µM·h. In data set [5], the IC50 is 2.05 µM. Further, the clearance in data set [2] was 91.7 mL/min/kg.

`CC(C)CCN([C@H](CO)C(=O)NO)S(=O)(=O)c1ccc2ccccc2c1`: the exposure (AUC) in data set [1] is 2.4 µM·h. In addition, in data set [2], the clearance was 45 mL/min/kg.

`CC(C)[C@H](C(=O)NO)N(CCN(C)C)S(=O)(=O)c1ccc2ccccc2c1` returned an AUC in data set [1] of 0.27 µM·h. The clearance in data set [2] is 233 mL/min/kg.

In the case of `CC(C)CCN([C@@H](C(=O)NO)C(C)O)S(=O)(=O)c1ccc2ccccc2c1` (stereo not given in full), the AUC in data set [1] stood at 3.1 µM·h. The clearance in data set [2] was 55 mL/min/kg.

In data set [1], `CC(C)CCN([C@@H](C(=O)NO)C(C)(C)C)S(=O)(=O)c1ccc2ccccc2c1` registered an AUC of 7.2 µM·h. The molecule also showed a clearance in data set [2] of 26.7 mL/min/kg.

For the molecule `CC(C)CN([C@@H](C(=O)NO)C(C)C)S(=O)(=O)c1ccc2ccccc2c1`, the IC50 in data set [5] stood at 0.308 µM.
